Laboratory results: patent publication US11999727B2 (Tango Therapeutics, Inc., priority 2020, dated 2024)
Like-named read-outs stand apart in the source and are kept apart here.

What was measured:
[1] = system: HAP1 MTAP-deleted cell line; test: SDMA in-cell western assay, HAP1 MTAP-deleted; format: cell-based; conditions: for MTAP intact/deleted ratio: IC50 ratio HAP1 MTAP-intact / HAP1 MTAP-deleted
Method in brief: (§1)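 Isogenic HAP1 pair: the MTAP-intact line expresses endogenous MTAP, and the deleted line is MTAP-null. Symmetric dimethylarginine was detected by in-cell western and IC50 values derived for each line.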

PRMT5 [2] = target: T1, PRMT5 (Homo sapiens, UniProt O14744); test: PRMT5 biochemical IC50 assay with MTA as cofactor; conditions: PRMT5, MTA as cofactor; read-out: MTA IC50
T1 construct: purchased Viva (custom protein)

[3] = system: HAP1 MTAP-intact cell line; test: SDMA in-cell western assay, HAP1 MTAP-intact; format: cell-based; conditions: Homo sapiens
Method in brief: as §1

PRMT5 [4] = target: T1, PRMT5; test: PRMT5 biochemical IC50 assay with no cofactor; conditions: PRMT5, no cofactor
Source text: Table 1 indicates IC50 values (μM) against PRMT5 for exemplary compounds in the presence of SAM as cofactor, with no cofactor, and with MTA as cofactor, respectively (columns 4-6). […] Ki values can be calculated from the IC50 values as described in the Examples section. As detailed in the Examples section, for the assay performed in the presence of SAM, IC50=Ki×1.5 (Ki=IC50/1.5).

PRMT5 [5] = target: T1, PRMT5; test: PRMT5 biochemical IC50 assay with SAM as cofactor; conditions: PRMT5, SAM as cofactor; read-out: SAM IC50
[6] = system: HAP1 MTAP-deleted cell line; test: Viability assay, MTAP-deleted cell line; format: cell-based; conditions: Homo sapiens, HAP1, viability assay, MTAP-deleted cell line; read-out: HAP1 MTAP deleted viability
Source text: Table 1 additionally indicates IC50 values in a viability assay for the MTAP-deleted cell line (column 10), indicating the effect of treatment with compound on cell survival.

[7] = Homo sapiens, HAP1, SDMA in-cell western, HAP1 MTAP-deleted, read-out: HAP1 MTAP deleted IC50
[8] = HAP1, SDMA in-cell western, HAP1 MTAP-intact, read-out: MTAP HAP1 intact IC50
[9] = Homo sapiens, HAP1, SDMA in-cell western, HAP1 MTAP-deleted, read-out: HAP 1 MTAP deleted IC50
[10] = read-out: No Cofactor/ rel IC50

T1 sequence (O14744 whole entry): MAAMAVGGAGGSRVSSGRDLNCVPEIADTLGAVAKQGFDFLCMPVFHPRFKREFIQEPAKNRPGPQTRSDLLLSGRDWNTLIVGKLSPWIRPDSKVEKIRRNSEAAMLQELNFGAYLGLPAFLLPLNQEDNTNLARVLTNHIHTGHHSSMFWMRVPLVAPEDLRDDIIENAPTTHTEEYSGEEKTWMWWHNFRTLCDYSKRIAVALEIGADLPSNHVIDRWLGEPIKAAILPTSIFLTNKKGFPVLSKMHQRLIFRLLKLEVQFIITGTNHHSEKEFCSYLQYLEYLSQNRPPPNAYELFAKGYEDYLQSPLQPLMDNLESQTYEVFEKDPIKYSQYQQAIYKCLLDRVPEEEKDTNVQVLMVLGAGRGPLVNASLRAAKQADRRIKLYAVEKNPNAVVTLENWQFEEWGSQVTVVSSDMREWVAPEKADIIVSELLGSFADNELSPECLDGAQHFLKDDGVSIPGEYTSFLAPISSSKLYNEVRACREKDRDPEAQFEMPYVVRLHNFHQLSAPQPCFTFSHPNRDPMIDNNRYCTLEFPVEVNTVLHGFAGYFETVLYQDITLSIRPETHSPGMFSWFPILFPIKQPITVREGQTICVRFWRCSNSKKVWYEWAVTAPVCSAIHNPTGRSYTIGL
T1 sequence (Q9BQA1 whole entry partner): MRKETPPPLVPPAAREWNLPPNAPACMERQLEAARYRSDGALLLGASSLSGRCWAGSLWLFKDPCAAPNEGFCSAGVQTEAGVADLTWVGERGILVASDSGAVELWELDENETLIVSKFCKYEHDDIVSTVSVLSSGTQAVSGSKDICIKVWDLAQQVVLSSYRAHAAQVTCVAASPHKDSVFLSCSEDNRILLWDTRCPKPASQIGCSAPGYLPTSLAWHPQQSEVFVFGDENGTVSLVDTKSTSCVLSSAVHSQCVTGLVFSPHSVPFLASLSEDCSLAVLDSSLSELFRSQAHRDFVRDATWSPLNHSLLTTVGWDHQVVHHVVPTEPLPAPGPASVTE

Row | SMILES | IC50 [1, 7] [µM] | MTAP intact/deleted ratio ([1]; SDMA in-cell western) | IC50 (PRMT5 [2]) [µM] | IC50 [3, 8] [µM] | IC50 (PRMT5 [4]; read-out: No Cofactor/rel IC50) [µM] | IC50 (PRMT5 [5]) [µM] | IC50 [1, 9] [µM] | IC50 (PRMT5 [4]; [10]) [µM] | IC50 [6] [µM] | IC50 ([1]; SDMA in-cell western, HAP1 MTAP-deleted, read-out: HAP1 MTAP deleted IC50) [µM] | IC50 ([1]; Homo sapiens, HAP1, read-out: HAP1 MTAP deleted IC50) [µM] | IC50 ([3]; HAP1, read-out: MTAP HAP1 intact IC50) [µM]
1 | Cc1cc(NC(=O)C(=O)N2C[C@H](C)CC[C@H]2C2CCCN(C)C2)cnc1N (mixture of isomers) [Compound 832, N-(6-amino-5-methyl-3-pyridyl)-2-[(2R,5S)-5-methyl-2-(1-methyl-3-piperidyl)-1-piperidyl]-2-oxo-acetamide] | > 1 | C (an IC50 ratio of less than 3 fold) | 0.05 to 0.5 | > 1 | > 0.5 | > 0.5 |  |  |  |  |  | 
2 | Cc1cc(NC(=O)C(=O)N2C[C@H](C)CC[C@H]2c2ccc(NC3COC3)cc2)cnc1N (racemic) [Compound 1048] |  | B (an IC50 ratio greater than or equal to 3 fold but lower than 10 fold) | 0.05 to 0.5 | 0.1 to 1 | 0.05 to 0.5 | 0.05 to 0.5 | < 0.1 |  |  |  |  | 
3 | Cc1cc(NC(=O)C(=O)N2C[C@H](C)CC[C@H]2c2ccc(CC(F)(F)F)cc2)cnc1N (racemic) [Compound 1056] |  | C (an IC50 ratio of less than 3 fold) | < 0.05 | 0.1 to 1 | 0.05 to 0.5 | 0.05 to 0.5 | 0.1 to 1 |  |  |  |  | 
4 | Cc1cncc(NC(=O)C(=O)N2CCCC[C@H]2c2cccc(C)c2)c1 (single isomer, unassigned) [Compound 4] |  | C (an IC50 ratio of less than 3 fold) | 0.05 to 0.5 | > 1 |  | > 0.5 | > 1 | > 0.5 |  |  |  | 
5 | Cc1cncc(NC(=O)C(=O)N2C[C@@H](C)CC[C@@H]2c2cccc(F)c2)c1 (single isomer, unassigned) [Compound 77] |  | C (an IC50 ratio of less than 3 fold) | > 0.5 | > 1 |  |  | > 1 | > 0.5 | > 10 |  |  | 
6 | Cc1cc([C@@H]2CC[C@@H](C)CN2C(=O)C(=O)Nc2cncc(C(N)=O)c2)ccc1F (single isomer, unassigned) [Compound 307] | > 1 | C (an IC50 ratio of less than 3 fold) | > 0.5 | > 1 | > 0.5 | > 0.5 |  |  |  |  |  | 
7 | COc1ncc(NC(=O)C(=O)N2C[C@H](C)CC[C@H]2c2cccs2)cc1C(N)=O (single isomer, unassigned) [Compound 310] | > 1 | C (an IC50 ratio of less than 3 fold) | > 0.5 | > 1 | > 0.5 | > 0.5 |  |  |  |  |  | 
8 | CNc1cccc([C@H]2CCCCN2C(=O)C(=O)Nc2cncc(C(N)=O)c2)c1 (single isomer, unassigned) [Compound 316] | > 1 | C (an IC50 ratio of less than 3 fold) | 0.05 to 0.5 | > 1 | > 0.5 | > 0.5 |  |  |  |  |  | 
9 | COc1ncc(NC(=O)C(=O)N2CCCCC2C2CCCCC2)cc1C(N)=O (single isomer, unassigned) [Compound 317, 5-(2-(2-cyclohexylpiperidin-1-yl)-2-oxoacetamido)-2-methoxynicotinamide] |  | C (an IC50 ratio of less than 3 fold) | > 0.5 | > 1 | > 0.5 | > 0.5 |  |  |  | > 1 |  | 
10 | CNc1cccc([C@H]2CC[C@H](C)CN2C(=O)C(=O)Nc2cncc(C(N)=O)c2)c1 (single isomer, unassigned) [Compound 321] | > 1 | C (an IC50 ratio of less than 3 fold) | > 0.5 | > 1 | > 0.5 | > 0.5 |  |  |  |  |  | 
11 | COc1ncc(NC(=O)C(=O)N2C[C@@H](C)CC[C@H]2c2ccccc2)cc1C(N)=O (single isomer, unassigned) [Compound 322] |  | B (an IC50 ratio greater than or equal to 3 fold but lower than 10 fold) | > 0.5 |  | > 0.5 | > 0.5 |  |  |  |  | > 1 | > 1
12 | Cc1cc([C@H]2CC[C@H](C)CN2C(=O)C(=O)Nc2cncc(C(N)=O)c2)cc(C)c1O (single isomer, unassigned) [Compound 326] | > 1 | C (an IC50 ratio of less than 3 fold) | > 0.5 | > 1 | > 0.5 | > 0.5 |  |  |  |  |  | 
13 | CC(=O)N1CCC(c2cccc([C@@H]3CC[C@@H](C)CN3C(=O)C(=O)Nc3cnc(N)c(C)c3)c2)CC1 (single isomer, unassigned) [Compound 331] | > 1 | C (an IC50 ratio of less than 3 fold) | > 0.5 | > 1 | > 0.5 | > 0.5 |  |  |  |  |  | 
14 | CC(=O)N1CCC(c2cccc([C@H]3CC[C@H](C)CN3C(=O)C(=O)Nc3cncc(C(N)=O)c3)c2)CC1 (single isomer, unassigned) [Compound 332] | > 1 | C (an IC50 ratio of less than 3 fold) | > 0.5 | > 1 | > 0.5 | > 0.5 |  |  |  |  |  | 
15 | Cc1cc(NC(=O)C(=O)N2CCCC[C@@H]2C2CCCC2)cnc1N (single isomer, unassigned) [Compound 336] | > 1 | C (an IC50 ratio of less than 3 fold) | > 0.5 | > 1 | > 0.5 | > 0.5 |  |  |  |  |  | 
16 | Cc1cc(NC(=O)C(=O)N2C[C@H](C)C[C@H](C)[C@H]2c2ccccc2)cnc1N (single isomer, unassigned) [Compound 343] | > 1 | C (an IC50 ratio of less than 3 fold) | > 0.5 | > 1 | > 0.5 | > 0.5 |  |  |  |  |  | 
17 | COc1ncc(NC(=O)C(=O)N2C[C@@H](C)CC[C@H]2C2CCCCC2)cc1C(N)=O (single isomer, unassigned) [Compound 371] | > 1 | C (an IC50 ratio of less than 3 fold) | > 0.5 | > 1 | > 0.5 | > 0.5 |  |  |  |  |  | 
18 | C[C@@H]1CC[C@@H](c2csc3ccccc23)N(C(=O)C(=O)Nc2cncc(C(N)=O)c2)C1 (single isomer, unassigned) [Compound 463] | 0.1 to 1 | A (an IC50 ratio greater than or equal to 10 fold) | < 0.05 | > 1 | 0.05 to 0.5 | 0.05 to 0.5 |  |  |  |  |  | 
19 | C[C@H]1CC[C@H](c2cc(F)c(F)c(Cl)c2)N(C(=O)C(=O)Nc2cncc(C(N)=O)c2)C1 (single isomer, unassigned) [Compound 846] | > 1 | C (an IC50 ratio of less than 3 fold) | > 0.5 | > 1 | > 0.5 | > 0.5 |  |  |  |  |  | 
20 | COc1ncc(NC(=O)C(=O)N2C[C@@H](C)C(F)(F)C[C@@H]2c2ccc(F)cc2)cc1C(N)=O (single isomer, unassigned) [Compound 1047] |  | C (an IC50 ratio of less than 3 fold) | > 0.5 | > 1 | > 0.5 | > 0.5 | > 1 |  |  |  |  | 
